Experimental data from ChEMBL document CHEMBL3046208, “Natural and synthetic podolactones with potential use as natural herbicide models” (2000).
Activity calls are given as the source filed them. The rule behind the calls is not given here.

Experiments:
[1] = tested on: Triticum aestivum; assay: Inhibition of root length of Triticum aestivum (wheat) at 0.1 mM after 5 days relative to untreated control; format: functional; conditions: 120 h
[2] = tested on: Lepidium sativum; assay: Inhibition of shoot length of Lepidium sativum at 0.1 mM after 5 days relative to untreated control; format: functional; conditions: 120 h
[3] = tested on: Solanum lycopersicum; assay: Inhibition of germination of Solanum lycopersicum (tomato) at 0.1 mM after 5 days relative to untreated control; format: functional; conditions: 120 h
[4] = tested on: Solanum lycopersicum; assay: Inhibition of root length of Solanum lycopersicum (tomato) at 10 uM after 5 days relative to untreated control; format: functional, organism-based
[5] = tested on: Hordeum vulgare; assay: Inhibition of germination of Hordeum vulgare (barley) at 0.1 mM after 5 days relative to untreated control; format: functional; conditions: 120 h
[6] = tested on: Solanum lycopersicum; assay: Inhibition of germination of Solanum lycopersicum (tomato) at 10 uM after 5 days relative to untreated control; format: functional, organism-based
[7] = tested on: Allium cepa; assay: Inhibition of root length of Allium cepa (onion) at 0.1 mM after 5 days relative to untreated control; format: functional; conditions: 120 h
[8] = tested on: Solanum lycopersicum; assay: Stimulation of germination of Solanum lycopersicum (tomato) at 0.1 mM after 5 days relative to untreated control; format: functional
[9] = tested on: Hordeum vulgare; assay: Stimulation of root length of Hordeum vulgare (barley) at 0.1 mM after 5 days relative to untreated control; format: functional
[10] = tested on: Lactuca sativa; assay: Stimulation of root length of Lactuca sativa cv. Nigra (lettuce) at 0.1 mM after 5 days relative to untreated control; format: functional
[11] = tested on: Lepidium sativum; assay: Inhibition of germination of Lepidium sativum at 0.1 mM after 5 days relative to untreated control; format: functional; conditions: 120 h
[12] = tested on: Triticum aestivum; assay: Stimulation of germination of Triticum aestivum (wheat) at 0.1 mM after 5 days relative to untreated control; format: functional
[13] = tested on: Triticum aestivum; assay: Inhibition of shoot length of Triticum aestivum (wheat) at 0.1 mM after 5 days relative to untreated control; format: functional; conditions: 120 h
[14] = tested on: Hordeum vulgare; assay: Inhibition of shoot length of Hordeum vulgare (barley) at 0.1 mM after 5 days relative to untreated control; format: functional; conditions: 120 h
[15] = tested on: Solanum lycopersicum; assay: Inhibition of root length of Solanum lycopersicum (tomato) at 0.1 mM after 5 days relative to untreated control; format: functional; conditions: 120 h
[16] = tested on: Lepidium sativum; assay: Stimulation of shoot length of Lepidium sativum at 0.1 mM after 5 days relative to untreated control; format: functional
[17] = tested on: Hordeum vulgare; assay: Stimulation of germination of Hordeum vulgare (barley) at 0.1 mM after 5 days relative to untreated control; format: functional
[18] = tested on: Lepidium sativum; assay: Stimulation of root length of Lepidium sativum at 0.1 mM after 5 days relative to untreated control; format: functional
[19] = tested on: Lepidium sativum; assay: Stimulation of germination of Lepidium sativum at 0.1 mM after 5 days relative to untreated control; format: functional
[20] = tested on: Lactuca sativa; assay: Inhibition of root length of Lactuca sativa cv. Nigra (lettuce) at 0.1 mM after 5 days relative to untreated control; format: functional; conditions: 120 h
[21] = tested on: Allium cepa; assay: Inhibition of germination of Allium cepa (onion) at 0.1 mM after 5 days relative to untreated control; format: functional; conditions: 120 h
[22] = tested on: Lepidium sativum; assay: Inhibition of germination of Lepidium sativum at 10 uM after 5 days relative to untreated control; format: functional, organism-based
[23] = tested on: Lactuca sativa; assay: Inhibition of germination of Lactuca sativa cv. Roman (lettuce) at 0.1 mM after 5 days relative to untreated control; format: functional; conditions: 120 h
[24] = tested on: Lactuca sativa; assay: Stimulation of root length of Lactuca sativa cv. Roman (lettuce) at 0.1 mM after 5 days relative to untreated control; format: functional
[25] = tested on: Lactuca sativa; assay: Inhibition of shoot length of Lactuca sativa cv. Nigra (lettuce) at 0.1 mM after 5 days relative to untreated control; format: functional; conditions: 120 h
[26] = tested on: Hordeum vulgare; assay: Stimulation of shoot length of Hordeum vulgare (barley) at 0.1 mM after 5 days relative to untreated control; format: functional
[27] = tested on: Triticum aestivum; assay: Stimulation of root length of Triticum aestivum (wheat) at 0.1 mM after 5 days relative to untreated control; format: functional
[28] = tested on: Solanum lycopersicum; assay: Inhibition of shoot length of Solanum lycopersicum (tomato) at 0.1 mM after 5 days relative to untreated control; format: functional; conditions: 120 h
[29] = tested on: Triticum aestivum; assay: Stimulation of shoot length of Triticum aestivum (wheat) at 0.1 mM after 5 days relative to untreated control; format: functional
[30] = tested on: Solanum lycopersicum; assay: Inhibition of shoot length of Solanum lycopersicum (tomato) at 10 uM after 5 days relative to untreated control; format: functional, organism-based
[31] = tested on: Allium cepa; assay: Stimulation of root length of Allium cepa (onion) at 0.1 mM after 5 days relative to untreated control; format: functional
[32] = tested on: Lactuca sativa; assay: Inhibition of germination of Lactuca sativa cv. Nigra (lettuce) at 0.1 mM after 5 days relative to untreated control; format: functional
[33] = tested on: Lactuca sativa; assay: Inhibition of shoot length of Lactuca sativa cv. Roman (lettuce) at 0.1 mM after 5 days relative to untreated control; format: functional; conditions: 120 h
[34] = tested on: Lactuca sativa; assay: Stimulation of germination of Lactuca sativa cv. Nigra (lettuce) at 0.1 mM after 5 days relative to untreated control; format: functional
[35] = tested on: Hordeum vulgare; assay: Inhibition of root length of Hordeum vulgare (barley) at 0.1 mM after 5 days relative to untreated control; format: functional; conditions: 120 h
[36] = tested on: Lepidium sativum; assay: Inhibition of root length of Lepidium sativum at 10 uM after 5 days relative to untreated control; format: functional, organism-based
[37] = tested on: Solanum lycopersicum; assay: Stimulation of shoot length of Solanum lycopersicum (tomato) at 0.1 mM after 5 days relative to untreated control; format: functional
[38] = tested on: Lepidium sativum; assay: Inhibition of shoot length of Lepidium sativum at 10 uM after 5 days relative to untreated control; format: functional, organism-based
[39] = tested on: Lepidium sativum; assay: Inhibition of root length of Lepidium sativum at 0.1 mM after 5 days relative to untreated control; format: functional; conditions: 120 h
[40] = tested on: Lactuca sativa; assay: Inhibition of root length of Lactuca sativa cv. Roman (lettuce) at 0.1 mM after 5 days relative to untreated control; format: functional; conditions: 120 h
[41] = tested on: Allium cepa; assay: Inhibition of shoot length of Allium cepa (onion) at 0.1 mM after 5 days relative to untreated control; format: functional; conditions: 120 h
[42] = tested on: Allium cepa; assay: Stimulation of shoot length of Allium cepa (onion) at 0.1 mM after 5 days relative to untreated control; format: functional
[43] = tested on: Solanum lycopersicum; assay: Stimulation of root length of Solanum lycopersicum (tomato) at 0.1 mM after 5 days relative to untreated control; format: functional
[44] = tested on: Lactuca sativa; assay: Stimulation of germination of Lactuca sativa cv. Roman (lettuce) at 0.1 mM after 5 days relative to untreated control; format: functional
[45] = tested on: Lactuca sativa; assay: Stimulation of shoot length of Lactuca sativa cv. Roman (lettuce) at 0.1 mM after 5 days relative to untreated control; format: functional
[46] = tested on: Lactuca sativa; assay: Stimulation of shoot length of Lactuca sativa cv. Nigra (lettuce) at 0.1 mM after 5 days relative to untreated control; format: functional
[47] = tested on: Allium cepa; assay: Stimulation of germination of Allium cepa (onion) at 0.1 mM after 5 days relative to untreated control; format: functional
[48] = tested on: Triticum aestivum; assay: Inhibition of germination of Triticum aestivum (wheat) at 0.1 mM after 5 days relative to untreated control; format: functional

## CO[C@H]1OC(=O)C=C2C1=C[C@H]1OC(=O)[C@@]3(C)CCC[C@@]2(C)[C@@H]13
[1]
  inhibition at 100 µM: > 40%
[2]
  inhibition at 100 µM: > 40%
[3]
  inhibition at 100 µM: > 40%
[4]
  inhibition: Active
[5]
  inhibition at 100 µM: > 40%
[6]
  inhibition: Active
[7]
  inhibition at 100 µM: > 40%
[8]
  Activity: >40%
[9]
  Activity: >40%
[10]
  Activity: >40%
[11]
  inhibition at 100 µM: 20%
[12]
  Activity: >40%
[13]
  inhibition at 100 µM: > 40%
[14]
  inhibition at 100 µM: > 40%
[15]
  inhibition at 100 µM: > 40%
[16]
  Activity: >40%
[17]
  Activity: >40%
[18]
  Activity: >40%
[19]
  Activity: 20%
[20]
  inhibition at 100 µM: > 40%
[21]
  inhibition at 100 µM: > 40%
[22]
  inhibition: Active
[23]
  inhibition at 100 µM: > 40%
[24]
  Activity: >40%
[25]
  inhibition at 100 µM: > 40%
[26]
  Activity: >40%
[27]
  Activity: >40%
[28]
  inhibition at 100 µM: > 40%
[29]
  Activity: >40%
[30]
  inhibition: Active
[31]
  Activity: >40%
[32]; 120 h
  inhibition at 100 µM: > 40%
[33]
  inhibition at 100 µM: > 40%
[34]
  Activity: >40%
[35]
  inhibition at 100 µM: > 40%
[36]
  inhibition: Active
[37]
  Activity: >40%
[38]
  inhibition: Active
[39]
  inhibition at 100 µM: > 40%
[40]
  inhibition at 100 µM: > 40%
[41]
  inhibition at 100 µM: > 40%
[42]
  Activity: >40%
[43]
  Activity: >40%
[44]
  Activity: >40%
[45]
  Activity: >40%
[46]
  Activity: >40%
[47]
  Activity: >40%
[48]; 120 h
  inhibition at 100 µM: > 40%

## C[C@@]12CCC[C@]3(C)C4=CC(=O)OCC4=C[C@@H](OC1=O)[C@@H]23
[1]
  inhibition at 100 µM: 20%
[2]
  inhibition at 100 µM: > 40%
[3]
  inhibition at 100 µM: > 40%
[4]
  inhibition: Active
[5]
  inhibition at 100 µM: 20%
[6]
  inhibition: Active
[7]
  inhibition at 100 µM: > 40%
[8]
  Activity: >40%
[9]
  Activity: >40%
[10]
  Activity: >40%
[11]
  inhibition at 100 µM: > 40%
[12]
  Activity: inactive
[13]
  inhibition at 100 µM: < 20%
[14]
  inhibition at 100 µM: > 40%
[15]
  inhibition at 100 µM: > 40%
[16]
  Activity: >40%
[17]
  Activity: 20%
[18]
  Activity: >40%
[19]
  Activity: >40%
[20]
  inhibition at 100 µM: > 40%
[21]
  inhibition at 100 µM: 20%
[22]
  inhibition: Active
[23]
  inhibition at 100 µM: 20%
[24]
  Activity: >40%
[25]
  inhibition at 100 µM: > 40%
[26]
  Activity: >40%
[27]
  Activity: 20%
[28]
  inhibition at 100 µM: > 40%
[29]
  Activity: <20%
[30]
  inhibition: Active
[31]
  Activity: >40%
[32]
  inhibition: inactive
[33]
  inhibition at 100 µM: > 40%
[34]
  Activity: inactive
[35]
  inhibition at 100 µM: > 40%
[36]
  inhibition: Active
[37]
  Activity: >40%
[38]
  inhibition: Active
[39]
  inhibition at 100 µM: > 40%
[40]
  inhibition at 100 µM: > 40%
[41]
  inhibition at 100 µM: > 40%
[42]
  Activity: >40%
[43]
  Activity: >40%
[44]
  Activity: 20%
[45]
  Activity: >40%
[46]
  Activity: >40%
[47]
  Activity: 20%
[48]
  inhibition: inactive
